pIC50: −log10 of the molar value. Blank lines part the entries; values can stand above or below the compound they belong to.
Tests used:
LDL [1] = conditions: in words; cited from earlier work
atherosclerotic lesions = conditions: WHHL rabbits, in words; cited from earlier work
LDL [2] = conditions: in words; cited from earlier work; remark: listed apart in the source
Lipoxygenase = experiment: Ex-Vivo Measurement of Lipoxygenase Inhibition in Orally Dosed Rats (LTB4 in A23187-stimulated blood); set-up: species or system Male Sprague Dawley rats; conditions: ex vivo rat, p.o., dose 10 (mg/kg), pretreatment 3 hr
Description: 2. […] After an interval of 3 or 6 hours, the rats were anesthetized with metofane (n =4/group) and blood collected in heparinized tubes. White blood cell counts and differentials were made. One ml of blood from each animal was placed in a 5 ml plastic tube in a shaker bath at 37° C. A23187 at a final concentration of 10 μM was added to the blood and the blood vortexed and incubated for 15 min at 37° C. with gentle shaking. Incubation was terminated by vortexing sample and centrifuging immediately at 1200 xG for 15 min at 4° C. The plasma was transferred to 15 ml plastic tubes each containing 8 ml of methanol to precipitate protein followed by vortexing. The samples were stored at -70° C. overnight and the next day the samples were centrifuged at 800 xG for 15 min to pellet the precipitate. The samples were dried in a Savant SpeedVac Concentrator Model SVC 200H and reconstituted to the original volume with cold RIA or ELISA buffer. The reconstituted samples were stored at -70° C. until assayed. The assay for LTB4 was perforated according to the directions of the [^3 H]RIA kit or ELISA kit (Seragen). The total metabolite level in 1 ml of blood is calculated and reported as ng/10^6 neutrophils. Significance is determined by a one-way analysis of variance with LSD comparisons to control (p<0.05).

5-Lipoxygenase = target: T1, 5-Lipoxygenase (Homo sapiens, UniProt P09917); experiment: Inhibition of 5-Lipoxygenase in Human Whole Blood (ionophore A23187-stimulated LTB4); assay type: cell-based
T1 construct: endogenous in cells; host or cells: whole blood of male human donors (results per 10^6 neutrophils)
T1 sequence (P09917 1-674): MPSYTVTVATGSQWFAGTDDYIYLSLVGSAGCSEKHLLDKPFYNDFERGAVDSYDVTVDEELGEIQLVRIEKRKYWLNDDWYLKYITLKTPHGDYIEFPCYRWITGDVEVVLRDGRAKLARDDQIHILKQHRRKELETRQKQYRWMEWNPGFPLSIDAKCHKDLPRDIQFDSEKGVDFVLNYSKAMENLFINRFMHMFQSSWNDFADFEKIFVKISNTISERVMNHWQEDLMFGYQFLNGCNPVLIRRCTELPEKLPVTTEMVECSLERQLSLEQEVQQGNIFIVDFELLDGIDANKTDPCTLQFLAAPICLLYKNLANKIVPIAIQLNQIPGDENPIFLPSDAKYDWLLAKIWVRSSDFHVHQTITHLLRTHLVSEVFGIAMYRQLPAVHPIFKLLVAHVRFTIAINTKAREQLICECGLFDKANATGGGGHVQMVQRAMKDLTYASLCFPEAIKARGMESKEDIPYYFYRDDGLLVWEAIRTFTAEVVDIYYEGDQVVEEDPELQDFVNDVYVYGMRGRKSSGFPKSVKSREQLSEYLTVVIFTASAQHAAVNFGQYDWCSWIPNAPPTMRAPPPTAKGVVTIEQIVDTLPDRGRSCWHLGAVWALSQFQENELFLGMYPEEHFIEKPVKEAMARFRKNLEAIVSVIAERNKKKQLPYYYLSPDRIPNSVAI
Description: 1. Inhibition of 5-Lipoxygenase in Human Whole Blood
Blood is obtained in 50-100 ml quantities from male donors. White blood cell counts and differentials are made. Two ml of blood are placed in a 15 ml polypropylene test tube. Test compounds are solubilized in dimethylsulfoxide and diluted in 1:10 in 10% bovine serum albumin in phosphate buffered saline, pH 7.4 resulting in a final dimethylsulfoxide concentration of 0.1% in the blood. Then, solutions of test compounds are added to the blood in a shaking water bath at 37° C. for 10 minutes prior to the addition of 30 μM calcium ionophore (A23187, Sigma). After ionophore administration, whole blood samples are mixed and incubated for 20 minutes at 37° C. in a shaking water bath. Incubation is terminated by placing samples in an ice bath and immediately adding ethylene glycol-bis-(β-aminoethyl ether)-N, N,N',N'-tetraacetic acid (10 mM). Samples are mixed and centrifuged at 1200×g for 15 minutes at […]. Preparation of samples for evaluation by RIA or ELISA is carded out by the following protocol. Plasma is removed from sample tubes, placed in 15 ml polypropylene test tubes containing 8 ml methanol, and then vortexed to precipitate protein. Samples are stored at -70° C. overnight. The next day, samples are centrifuged at 200×g for 15 minutes at 4° C. to pellet the precipitate. Samples are dried in a Savant SpeedVac Concentrator, Model SVC 200H, reconstituted to original volume with ice cold RIA or ELISA buffer, and stored at -70° C. until assayed. The assay for eicosanoids (LTB4, TxB2, and PGE2) is performed as described by the manufacturer of the [^3 H]-RIA kit or ELISA kit (LTB4 -Amersham, TxB2 and PGE2 - Caymen Chemical).
The total eicosanoid level in 2 ml of blood is calculated and reported as ng/10^6 neutrophils. Significance is determined by a one-way analysis of variance with least significant difference (LSD) comparisons to control (p≤0.05) and IC50 's (μM) are determined by regression analysis (Finney, 1978). Drug effects are expressed as percent change from control values.

Low Density Lipoprotein = experiment: Inhibition of Copper Ion Mediated Oxidation of Low Density Lipoprotein; assay type: biochemical; conditions: Cu+2 mediated oxidation of rabbit or monkey LDL, 37° C., 90 minutes, 532 nm
Description: 5. Inhibition of Copper Ion Mediated Oxidation of Low Density Lipoprotein
In this in vitro assay, the inhibition of Cu^+2 mediated oxidation of rabbit or monkey LDL by an invention compound is determined spectrophotometricallly. Oxidation of LDL results in the formation of LDL-diene which absorbs light at 532 nm. Inhibition of oxidation of LDL leads to a decrease in absorbance at 532 nm.
Rabbit or monkey LDL is prepared according to the procedures of Havel, Eder and Gragdon, "The Distribution and Chemical Composition of Ultracentrifugally Separated Lipoproteins in Human Serum,: J. Clin. Invest. 34, 1345-1353 (1955) and Parhtasarathy, Wieland and Steriberg, "A Role for Endothelial Cell Lipoxygenase in the Oxidative Modification of Low Density Lipoprotein," Proc. Natl. Acad. Sci. USA 86, 1046-1050 (1989). Test compound solutions are prepared by dissolving the invention compounds in ethanol at concentrations up to 248 μM. The medium used is Dulbecco's phosphate buffered saline containing 0.5 mg/ml bovine serum albumin. For standards, 0 to 10 μl of an aqueous solution of 1,1,3,3-tetraethoxypropane (1 μmol/ml H2 O) in 4.1 ml of medium is used.
Test compound solution ([…]) is added to 4 ml of medium in incubation tubes. To each tube is added 10 μl of LDL solution and 25 μl of aqueous copper sulfate solution (1.32 mg/ml H2 O). The tubes are incubated at 37° C. for 90 minutes and the oxidation reaction quenched by addition of 1 ml of thiobarbituric acid solution (0.67% in 50% acetic acid). The tubes are heated at 90° C. for 1 hour, then chilled in an ice bath and the chromophore extracted into 2 ml of n-butanol. Absorbence is read at 532 nm and the results are reported as nmols of malondialdehyde equivalents.
Significant differences (p<0.05) are determined by the Dunnett T-test or by the Student-Newman-Keuls Test for significant differences between means. The assay is conducted using several concentrations [I] of the inhibitor test compounds. The LDL solution concentrations at different experiments were either 1.5 mg/ml, 2.5 mg/ml or 10.3 mg/ml. The IC50 is determined by non-linear regression, plotting log [I] vs. % inhibition. (Reference: K. Yagi, Biochemical Medicine 15,212-216 (1976)).

[3] = system: LT-dependent bronchoconstriction; experiment: Inhibition of Bronchoconstriction in Guinea Pigs Induced by Exogenously Administered Antigen; assay type: in vivo, Male guinea pigs; conditions: 10 mg/kg i.v.
Description: 4. Inhibition of Brochoconstriction in Guinea Pigs Induced by Exogenously Administered Antigen
Male guinea pigs (Charles River, Wilmington, Mass.) were sensitized 3-4 weeks prior to antigen challenge by administration of 2 i.m. injections of ovalbumin, 1 into each hind limb (35 mg total). Sensitized animals (500-600 g) were fasted overnight prior to experimentation. Conscious animals were then dosed p.o. with drug or vehicle alone (0.5% Tween 80 in H2 O) at the indicated times prior to antigen challenge, or anesthetized animals were dosed i.v. with drug or vehicle alone (DMSO) 5 min prior to antigen challenge. Animals were anesthetized by urethane (2.8 g/kg i.p.). A carotid artery and jugular vein were cannulated to allow for the monitoring of blood pressure and the administration of drugs, respectively. The trachea was then cannulated and connected to a Harvard Apparatus rodent ventilator (S. Natick, Mass.). Spontaneous respiration was abolished by the administration of succinylcholine (2.5 mg/kg i.v.). The animals were then ventilated with room air at a rate of 65 breaths per min. Airway inflation pressure was measured using a Statham pressure transducer (Gould Instruments, Cleveland, Ohio) connected to the tracheal cannula via a side-arm and recorded on a Grass Instruments recorder (Quincy, Mass.). The tidal volume (approximately 10 cc/kg) was adjusted to give a baseline inflation pressure of 8-10 cm H2 O at end inspiration. Animals were then allowed 20 min to stabilize.
Following the stabilization period, animals were given i.v. injections of pyrilamine (5 mg/kg), propranolol (0.1 mg/kg) and indomethacin (10 mg/kg) at 15, 10 and 5 min, respectively, prior to antigen challenge. This pretreatment results in an LT-dependent bronchoconstriction following antigert challenge, which was accomplished by i.v. administration of ovalbumin (10 mg/kg). Only one bronchoconstriction per animal was induced. End-inspiratory inflation pressure (in cm H2 O over baseline) was measured at 5 min post-antigen challenge. A mean value and standard error for the % inhibition of control bronchoconstriction in each drug-treated group was then calculated.

SMILES: CC(C)(Sc1cc(C(C)(C)C)c(O)c(C(C)(C)C)c1)Sc1cc(C(C)(C)C)c(O)c(C(C)(C)C)c1 [Probucol]
- inhibition of Cu+2 mediated oxidative modification of LDL (LDL [1]): inhibits both cell mediated and Cu^+2 mediated oxidative modification of LDL
- inhibition of formation of atherosclerotic lesions (atherosclerotic lesions): shown to inhibit the formation of atherosclerotic lesions in WHHL rabbits
- inhibition of cell mediated oxidative modification of LDL (LDL [2]): inhibits both cell mediated and Cu^+2 mediated oxidative modification of LDL

- inhibition at 10 µM (5-Lipoxygenase; 10 μM): 83%
- pIC50 (Low Density Lipoprotein): 6.74
SMILES: Cc1oc(-c2cc(C(C)(C)C)c(O)c(C(C)(C)C)c2)nc1CCOc1ccc(CN(O)C(N)=O)cc1 [Example 10]
- % Inhibition of LTB4 (Lipoxygenase): 44%

- inhibition at 1 µM (5-Lipoxygenase; 1 μM): 57%
SMILES: NC(=O)N(O)Cc1ccc(OCCc2csc(-c3ccc(C(F)(F)F)cc3)n2)cc1 [Example 19, 1-Hydroxy-1-[4-[2-[2-(4-trifluoromethyl-phenyl)-thiazol-4-yl]-ethoxy]-benzyl]-urea]
- Bronchoconstriction % Inhibition [3]: 21%

From patent US5428048A, “Aryl-N-hydroxyureas as inhibitors of 5-lipoxygenase and anto-arteriosclerotic agents” (American Home Products Corporation, priority 1993, dated 1995)
